The values that follow come from ChEMBL document CHEMBL1909046, “DrugMatrix in vitro pharmacology data”.

Data set [1] deals with Aldo-keto reductase family 1 member B1 (Rattus norvegicus, UniProt P07943). In kind it is tissue-based, Lens of camera-type eye.
Data set [2] addresses T1, Alpha-2C adrenergic receptor (Homo sapiens, UniProt P18825).
T1 sequence (P18825 whole entry): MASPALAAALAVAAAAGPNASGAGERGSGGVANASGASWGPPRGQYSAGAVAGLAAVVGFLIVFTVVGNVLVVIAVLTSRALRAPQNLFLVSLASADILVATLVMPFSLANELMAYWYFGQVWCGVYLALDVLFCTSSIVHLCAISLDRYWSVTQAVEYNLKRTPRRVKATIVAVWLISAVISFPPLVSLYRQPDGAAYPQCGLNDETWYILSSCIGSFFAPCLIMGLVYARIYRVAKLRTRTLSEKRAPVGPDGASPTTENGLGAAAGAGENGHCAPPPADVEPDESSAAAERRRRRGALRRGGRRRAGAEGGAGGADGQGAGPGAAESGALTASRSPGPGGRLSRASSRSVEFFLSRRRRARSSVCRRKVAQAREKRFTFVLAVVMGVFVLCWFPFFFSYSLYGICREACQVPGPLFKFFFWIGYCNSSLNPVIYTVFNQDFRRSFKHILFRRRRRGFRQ
Kind of data set: DRUGMATRIX: Adrenergic Alpha-2C radioligand binding (ligand: [3H] MK-912). The format is cell membranes, Sf9, Membrane. The conditions noted are these: sf9.

The target of data set [3] is T2, Vasoactive intestinal polypeptide receptor 1 (Homo sapiens, UniProt P32241). Note: in other assays of this panel Not Active means under 50% inhibition at 10 µM.
T2 sequence (P32241 whole entry): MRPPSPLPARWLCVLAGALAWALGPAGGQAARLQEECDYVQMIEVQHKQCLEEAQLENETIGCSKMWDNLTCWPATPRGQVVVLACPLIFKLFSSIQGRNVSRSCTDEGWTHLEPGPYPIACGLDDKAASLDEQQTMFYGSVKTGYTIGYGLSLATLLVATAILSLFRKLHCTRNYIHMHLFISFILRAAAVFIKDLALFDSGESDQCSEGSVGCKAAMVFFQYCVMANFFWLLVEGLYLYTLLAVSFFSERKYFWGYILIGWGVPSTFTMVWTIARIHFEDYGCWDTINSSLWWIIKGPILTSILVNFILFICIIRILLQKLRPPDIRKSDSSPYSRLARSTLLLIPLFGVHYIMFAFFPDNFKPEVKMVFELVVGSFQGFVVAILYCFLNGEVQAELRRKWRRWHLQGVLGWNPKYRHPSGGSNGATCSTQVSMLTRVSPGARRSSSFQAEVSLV
The format is cell membranes, Membrane. The conditions noted are these: ht-29.

The nature of data set [4]: DRUGMATRIX: Tumor Necrosis Factor (TNF), Non-Selective radioligand binding (ligand: [125I] TNF-alpha). The format is cell membranes, Membrane. As to conditions: u-937; Not Active = under 50% inhibition at 10 µM.
The target in data set [5] is Mu-type opioid receptor (Homo sapiens, UniProt P35372). Kind of data set: DRUGMATRIX: Opiate mu (OP3, MOP) radioligand binding (ligand: [3H] Diprenorphine). As to conditions: cho-k1; Not Active = under 50% inhibition at 10 µM. In kind it is cell membranes, CHO-K1, Membrane.
Data set [6] deals with T3, Alpha-1D adrenergic receptor (Homo sapiens, UniProt P25100).
T3 sequence (P25100 whole entry): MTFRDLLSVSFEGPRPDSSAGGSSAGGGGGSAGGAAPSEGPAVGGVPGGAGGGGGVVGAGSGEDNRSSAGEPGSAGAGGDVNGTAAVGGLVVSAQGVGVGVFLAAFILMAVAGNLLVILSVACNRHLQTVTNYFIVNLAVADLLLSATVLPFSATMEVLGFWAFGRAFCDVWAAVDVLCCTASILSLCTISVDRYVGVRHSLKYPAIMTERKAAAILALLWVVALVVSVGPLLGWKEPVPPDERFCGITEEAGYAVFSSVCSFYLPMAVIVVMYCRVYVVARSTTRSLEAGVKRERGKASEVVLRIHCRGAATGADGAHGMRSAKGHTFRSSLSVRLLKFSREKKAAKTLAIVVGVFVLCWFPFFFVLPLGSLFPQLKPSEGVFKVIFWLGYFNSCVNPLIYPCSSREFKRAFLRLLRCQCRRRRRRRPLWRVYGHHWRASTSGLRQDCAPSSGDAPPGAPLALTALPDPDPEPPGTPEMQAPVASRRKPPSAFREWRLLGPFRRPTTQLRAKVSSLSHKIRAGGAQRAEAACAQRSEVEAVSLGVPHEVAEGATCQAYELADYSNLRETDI
The format is cell membranes, HEK293, Membrane.

The target in data set [7] is Mitogen-activated protein kinase 1 (Homo sapiens, UniProt P28482). Description: DRUGMATRIX: Protein Serine/Threonine Kinase, ERK2 enzyme inhibition (substrate: Myelin Basic Protein). Details: species or system Escherichia coli. The conditions noted are these: Not Active = under 50% inhibition at 10 µM.
Data set [8] addresses 5-hydroxytryptamine receptor 1B (Rattus norvegicus, UniProt P28564). In kind it is cell membranes, Wistar, Cerebral cortex, Membrane.
A short description of data set [9]: DRUGMATRIX: Platelet-Derived Growth Factor (PDGF) radioligand binding (ligand: [125I] PDGF). In kind it is cell-based. The conditions noted are these: nih3t3; Not Active = under 50% inhibition at 10 µM.
Data set [10] in a line: DRUGMATRIX: Nicotinic Acetylcholine radioligand binding (ligand: [125I] Epibatidine). The format is cell membranes, Membrane. As to conditions: imr-32; Not Active = under 50% inhibition at 10 µM.
The target of data set [11] is T4, Cathepsin G (Homo sapiens, UniProt P08311).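 Note: inhibition of Cathepsin G enzyme activity, tested on an AMC-conjugated peptide substrate; in other assays of this panel Not Active means under 50% inhibition at 10 µM.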
T4 sequence (P08311 whole entry): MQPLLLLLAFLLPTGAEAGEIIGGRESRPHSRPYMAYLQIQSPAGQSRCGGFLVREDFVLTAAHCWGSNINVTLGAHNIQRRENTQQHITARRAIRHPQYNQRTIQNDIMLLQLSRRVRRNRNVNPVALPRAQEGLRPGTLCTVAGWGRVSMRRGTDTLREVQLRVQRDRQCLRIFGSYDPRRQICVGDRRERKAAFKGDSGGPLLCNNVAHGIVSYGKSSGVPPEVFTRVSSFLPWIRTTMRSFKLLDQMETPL
The format is tissue-based. The conditions noted are these: neutrophil.

For data set [12], the target named is Cytochrome P450 2E1 (Homo sapiens, UniProt P05181). As to conditions: bti-tn-5b1-4. Note: in other assays of this panel Not Active means under 50% inhibition at 10 µM.
The target in data set [13] is Beta-2 adrenergic receptor (Homo sapiens, UniProt P07550). Description: DRUGMATRIX: Adrenergic beta2 radioligand binding (ligand: [3H] CGP-12177). As to conditions: cho; Not Active = under 50% inhibition at 10 µM. The format is cell membranes, Membrane.

Where a SMILES comes first, the peptide text is derived from it. Bridges are numbered along the chain shown (N, C = ends). [ ]: non-standard residue; d: D form. The star is where a group is joined. Ileψ(thiazoline)Cys = CC[C@H](C)[C@H](N)C1=N[C@H](C(=O)*)CS1; dOrn = NCCC[C@@H](N)C(=O)O

5-hydroxytryptamine receptor 1B, sequence (P28564 whole entry): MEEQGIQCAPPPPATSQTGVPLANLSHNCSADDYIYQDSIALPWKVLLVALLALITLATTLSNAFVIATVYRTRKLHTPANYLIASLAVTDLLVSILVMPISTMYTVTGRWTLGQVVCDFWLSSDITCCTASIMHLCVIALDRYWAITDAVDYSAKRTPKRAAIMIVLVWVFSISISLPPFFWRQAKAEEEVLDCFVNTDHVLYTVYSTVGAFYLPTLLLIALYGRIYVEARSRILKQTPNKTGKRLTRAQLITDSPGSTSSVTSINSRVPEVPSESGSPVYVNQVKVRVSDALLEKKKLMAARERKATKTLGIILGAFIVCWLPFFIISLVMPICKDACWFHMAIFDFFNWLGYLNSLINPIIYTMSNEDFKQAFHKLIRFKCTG
Mitogen-activated protein kinase 1, sequence (P28482 whole entry): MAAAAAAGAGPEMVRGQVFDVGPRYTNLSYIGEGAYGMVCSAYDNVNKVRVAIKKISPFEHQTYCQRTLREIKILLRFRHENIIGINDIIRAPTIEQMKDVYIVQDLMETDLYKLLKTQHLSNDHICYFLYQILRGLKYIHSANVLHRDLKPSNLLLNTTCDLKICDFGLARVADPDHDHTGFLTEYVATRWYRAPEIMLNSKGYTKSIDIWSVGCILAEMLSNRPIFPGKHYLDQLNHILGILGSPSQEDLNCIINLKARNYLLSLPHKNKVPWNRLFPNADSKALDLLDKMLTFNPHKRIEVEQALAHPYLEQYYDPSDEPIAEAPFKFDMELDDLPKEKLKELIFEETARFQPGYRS
Cytochrome P450 2E1, sequence (P05181 whole entry): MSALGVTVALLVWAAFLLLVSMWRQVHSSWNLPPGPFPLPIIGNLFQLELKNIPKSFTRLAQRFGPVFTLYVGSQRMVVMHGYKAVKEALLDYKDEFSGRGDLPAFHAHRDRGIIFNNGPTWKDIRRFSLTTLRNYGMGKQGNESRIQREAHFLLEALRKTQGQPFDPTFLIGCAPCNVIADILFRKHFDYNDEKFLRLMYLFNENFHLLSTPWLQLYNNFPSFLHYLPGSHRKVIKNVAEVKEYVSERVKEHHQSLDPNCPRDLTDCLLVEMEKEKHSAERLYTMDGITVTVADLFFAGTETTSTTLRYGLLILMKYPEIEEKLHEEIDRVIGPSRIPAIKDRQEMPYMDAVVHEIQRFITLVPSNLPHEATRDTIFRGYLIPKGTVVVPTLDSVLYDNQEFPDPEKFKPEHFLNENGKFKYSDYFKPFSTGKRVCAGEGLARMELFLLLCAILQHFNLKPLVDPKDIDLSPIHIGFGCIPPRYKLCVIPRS
Mu-type opioid receptor, sequence (P35372 whole entry): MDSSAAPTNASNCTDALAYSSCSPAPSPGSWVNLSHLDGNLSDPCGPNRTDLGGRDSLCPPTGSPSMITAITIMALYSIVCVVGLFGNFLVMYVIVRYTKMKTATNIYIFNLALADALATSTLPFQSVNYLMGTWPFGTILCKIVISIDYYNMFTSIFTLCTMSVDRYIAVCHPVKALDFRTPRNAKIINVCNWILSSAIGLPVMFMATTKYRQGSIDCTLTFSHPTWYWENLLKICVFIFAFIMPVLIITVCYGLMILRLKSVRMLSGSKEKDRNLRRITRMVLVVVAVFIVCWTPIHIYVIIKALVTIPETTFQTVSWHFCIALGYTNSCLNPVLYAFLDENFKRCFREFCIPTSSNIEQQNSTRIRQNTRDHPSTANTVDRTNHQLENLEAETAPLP

By IC50 is commonly meant the concentration needed to halve the response being measured. The term Ki denotes the equilibrium dissociation constant of an inhibitor or competing ligand from its target. As for `CC(C)NC[C@H](O)COc1cccc2[nH]ccc12`, the IC50 entry in data set [1], in [2], in data set [3], in data set [4], in data set [5] and in [6] (hek293) was “Not Active” throughout. In addition, the IC50 result in data set [7], in data set [8], in [9], in [10] and in [11] was “Not Active” in each case. The inhibitory constant (Ki) result in data set [4], in data set [9] and in [10] was “Not Active” in each case.

Consider `CC(/C=C1\SC(=S)N(CC(=O)O)C1=O)=C\c1ccccc1`, for which the half-maximal inhibitory concentration (IC50) entry in data set [12], in [2], in data set [3], in data set [4], in [5] and in data set [6] (hek293) was “Not Active” throughout. For the same compound, the half-inhibitory concentration (IC50) entry in data set [7], in [8], in data set [9], in [10], in data set [11] and in [13] was “Not Active” in each case. Also, the inhibition constant (Ki) entry in [12], in data set [4], in data set [9] and in [10] was “Not Active” in each case.

In the case of `CC[C@H](C)[C@H](N)C1=N[C@H](C(=O)N[C@@H](CC(C)C)C(=O)N[C@H](CCC(=O)O)C(=O)N[C@H](C(=O)N[C@H]2CCCCNC(=O)[C@H](CC(N)=O)NC(=O)[C@@H](CC(=O)O)NC(=O)[C@H](Cc3cnc[nH]3)NC(=O)[C@@H](Cc3ccccc3)NC(=O)[C@H]([C@@H](C)CC)NC(=O)[C@@H](CCCN)NC2=O)[C@@H](C)CC)CS1` [BACITRACIN] ({Ileψ(thiazoline)Cys}-L[dE]IK[dOrn]I[dF]H[dD]N; lactam 4-C), the IC50 entry in data set [1], in [12], in data set [2], in [3], in data set [4] and in data set [5] was “Not Active” throughout. Moreover, the concentration for half-maximal inhibition (IC50) entry in [6] (hek293), in data set [7], in data set [9], in [10], in data set [11] and in [13] was “Not Active” throughout. For the same compound, the Ki result in [12], in data set [4], in data set [9] and in [10] was “Not Active” throughout.

Consider `O=C1OCCN1/N=C/c1ccc([N+](=O)[O-])o1` [FURAZOLIDONE], for which the IC50 entry in [1], in data set [2], in data set [3], in [4], in data set [5] and in data set [6] (hek293) was “Not Active” throughout. The IC50 entry in data set [7], in data set [8], in data set [9], in [10], in data set [11] and in [13] was “Not Active” in each case. The Ki result in [4], in data set [9] and in data set [10] was “Not Active” in each case.

With `NCC(=O)O` [GLYCINE], the IC50 entry in data set [1], in data set [2], in data set [3], in data set [4], in data set [5] and in data set [6] (hek293) was “Not Active” in each case. The concentration for half-maximal inhibition (IC50) entry in [7], in data set [8], in data set [9], in data set [10], in data set [11] and in [13] was “Not Active” in each case. Moreover, the inhibition constant (Ki) entry in data set [4], in data set [9] and in data set [10] was “Not Active” each time.

Regarding `CNCCC=C1c2ccccc2CCc2ccccc21` [NORTRIPTYLINE], the half-inhibitory concentration (IC50) result in data set [1] is “Not Active”; in data set [12], “Not Active”; in [3] it was “Not Active”; in data set [4], “Not Active”; in [5] it was “Not Active”; in data set [6] (read-out: IC50), 273 nM. Besides, the IC50 entry in [7] was “Not Active”; in [8] (read-out: IC50), 3200 nM; in data set [9] it was “Not Active”; in data set [10], “Not Active”; in [11], “Not Active”; in data set [13], “Not Active”. For the same compound, the Ki entry in [12] was “Not Active”; in [4] it was “Not Active”; in [6] (read-out: Ki) it was 134 nM; in [8] (read-out: Ki) it was 1450 nM; in data set [9] it was “Not Active”; in [10], “Not Active”.

Consider OXALIPLATIN, for which the 50% inhibitory concentration (IC50) entry in data set [1], in [12], in data set [2], in [3], in [4] and in [6] (hek293) was “Not Active” each time. Further, the 50% inhibitory concentration (IC50) result in [7], in data set [8], in data set [9], in data set [10], in data set [11] and in data set [13] was “Not Active” each time. Moreover, the Ki entry in data set [1], in data set [12], in data set [2], in data set [3], in data set [4] and in data set [6] (hek293) was “Not Active” each time. Besides, the Ki result in data set [7], in data set [8], in data set [9], in data set [10], in data set [11] and in data set [13] was “Not Active” in each case.
